In assay [1] the test system is brain protein carbonyl contents. Briefly: Assay of brain protein carbonyls. In kind it is in vivo, mouse. To be noted: 2 week diabetic mice, NAC 1 week. Here is the method: The extent of protein glycation was determined by measuring total protein carbonyl contents. Briefly, the brain homogenate was incubated with 10 mM of 2, 4-dinitro-phenylhydrazine (DNPH) in 2M hydrochloride acid (1:2 volume) for 1 h followed by precipitation with trichloroacetic acid (final concentration 10%). Following centrifugation, the precipitant was washed 3 times with ethanol-ethyl acetate (1:1) to remove free DNPH. The pellets were redissolved in 0.6 ml of 6 M guanidine hydrochloride solution containing 20 mM potassium phosphate (pH=2.3 adjusted with trifluoroacetic acid) at 37° C., and the insoluble materials were removed by centrifugation for 3 min at 11000 g. The absorbance was monitored at 366 nm, and protein carbonyl contents quantified using the extinction coefficient of 22000 M^−1 cm^−1.

The subject of assay [2] is diabetic mice with transient ischemic attacks. Briefly: Thrombosis after transient ischemic attack (TIA) in diabetic mice. In kind it is in vivo, mouse. To be noted: diabetes+TIA mice given NAC.

The structures appear in SMILES notation. Entries after “also recorded” stand apart in the source; their conditions may differ.

In the case of `CC(=O)N[C@@H](CS)C(=O)O` [NAC, N-acetylcysteine], the “brain protein carbonyl contents” value in assay [1] is reported as “highly effective in attenuating; also recorded: decreased significantly; also recorded: significantly attenuated”. In addition, in assay [2], the thrombosis time result was “some improvement”.
